From patent US8802597B2, “Herbicidal pyrimidines” (E I du Pont de Nemours and Company, priority 2003, dated 2014)

What was measured:
Format in all cases: in vivo
[1] = system: giant foxtail (Setaria faberi); assay: Test A pre/postemergence
Procedure, shortened: (§1)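 Pre/post greenhouse screen; loam/sand soil; solvent + surfactant formulation; pre = directed soil spray at planting, post = 1–2 leaf plants, 2–10 cm; ~10 d; visual 0–100 rating vs untreated.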

[2] = system: crabgrass (Digitaria sanguinalis); assay: Test A pre/postemergence
Procedure, shortened: as §1

[3] = system: morningglory (Ipomoea spp.); assay: Test A pre/postemergence
Procedure, shortened: as §1

[4] = system: barnyardgrass (Echinochloa crus-galli); assay: Test A pre/postemergence
Procedure, shortened: as §1

[5] = system: redroot pigweed (Amaranthus retroflexus); assay: Test A pre/postemergence
Procedure, shortened: as §1

[6] = system: velvetleaf (Abutilon theophrasti); assay: Test A pre/postemergence
Procedure, shortened: as §1

[7] = system: barnyardgrass (Echinochloa crus-galli); assay: Test B flooded paddy test; conditions: Flood, scale 0 to 100
Procedure: (§2) At the same time, plants selected from these crop and weed species and also blackgrass (Alopecurus myosuroides) and wild oat (Avena fatua) were treated with postemergence applications of test chemicals formulated in the same manner. Plants ranged in height from 2 to 18 cm (1- to 4-leaf stage) for postemergence treatments. Plant species in the flooded paddy test consisted of rice (Oryza sativa), umbrella sedge (Cyperus difformis), duck salad (Heteranthera limosa) and barnyardgrass (Echinochloa crus-galli) grown to the 2-leaf stage for testing. Treated plants and controls were maintained in a greenhouse for 13 to 15 days, after which time all species were compared to controls and visually evaluated. Plant response ratings, summarized in Table B, are based on a scale of 0 to 100 where 0 is no effect and 100 is complete control. A dash (-) response means no test result.

[8] = system: duck salad (Heteranthera limosa); assay: Test B flooded paddy test; conditions: Flood, scale 0 to 100
Procedure: as §2

[9] = system: umbrella sedge (Cyperus difformis); assay: Test B flooded paddy test; conditions: Flood, scale 0 to 100
Procedure: as §2

rice (Oryza sativa) = assay: Test B flooded paddy test; conditions: Flood, scale 0 to 100
Procedure: as §2

[10] = system: ducksalad (Heteranthera limosa); assay: Test E flooded paddy water application; conditions: Flood, 21 days, scale 0 to 100 (0 no effect, 100 complete control)
Procedure, shortened: (§3)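 Greenhouse pots of Tama silt loam with weeds and rice at 2.0–2.5-leaf stage, flooded to 3 cm; compounds applied directly into paddy water, depth maintained. Visual rating versus untreated controls after 21 days, 0 (no effect) to 100 (complete control); 29.5/26.7 °C, 16-h photoperiod.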

[11] = system: late watergrass (Echinochloa oryzicola); assay: Test E flooded paddy water application; conditions: Flood, 21 days, scale 0 to 100 (0 no effect, 100 complete control)
Procedure, shortened: as §3

[12] = system: early watergrass (Echinochloa oryzoides); assay: Test E flooded paddy water application; conditions: Flood, 21 days, scale 0 to 100 (0 no effect, 100 complete control)
Procedure, shortened: as §3

[13] = system: purple redstem (Ammannia coccinea); assay: Test E flooded paddy water application; conditions: Flood, 21 days, scale 0 to 100 (0 no effect, 100 complete control)
Procedure, shortened: as §3

[14] = system: barnyardgrass (Echinochloa crus-galli); assay: Test E flooded paddy water application; conditions: Flood, 21 days, scale 0 to 100 (0 no effect, 100 complete control)
Procedure, shortened: as §3

[15] = system: rice flatsedge (Cyperus iria); assay: Test E flooded paddy water application; conditions: Flood, 21 days, scale 0 to 100 (0 no effect, 100 complete control)
Procedure, shortened: as §3

[16] = system: junglerice (Echinochloa colona); assay: Test E flooded paddy water application; conditions: Flood, 21 days, scale 0 to 100 (0 no effect, 100 complete control)
Procedure, shortened: as §3

[17] = system: bearded (brdd.) sprangletop (Leptochloa fusca ssp. fascicularis); assay: Test E flooded paddy water application; conditions: Flood, 21 days, scale 0 to 100 (0 no effect, 100 complete control)
Procedure, shortened: as §3

[18] = system: smallflower umbrella sedge (Cyperus difformis); assay: Test E flooded paddy water application; conditions: Flood, 21 days, scale 0 to 100 (0 no effect, 100 complete control)
Procedure, shortened: as §3

[19] = system: transplanted rice seedlings (Oryza sativa cv. ‘Japonica-M202’); assay: Test E flooded paddy water application; conditions: Flood, 21 days, scale 0 to 100 (0 no effect, 100 complete control)
Procedure, shortened: as §3

[20] = system: water seeded rice seedlings (Oryza sativa cv. ‘Japonica-M202’); assay: Test E flooded paddy water application; conditions: Flood, 21 days, scale 0 to 100 (0 no effect, 100 complete control)
Procedure, shortened: as §3

[21] = Postemergence, 125 g ai/ha, 0 to 100 scale (0 no effect, 100 complete control)
[22] = Postemergence, 500 g ai/ha, 0 to 100 scale (0 no effect, 100 complete control)
[23] = Preemergence, 125 g ai/ha, 0 to 100 scale where 0 is no effect and 100 is complete control, approximately ten days
[24] = Preemergence, 500 g ai/ha, 0 to 100 scale where 0 is no effect and 100 is complete control, approximately ten days

Nc1nc(C2CC2)nc(C(=O)OCc2ccc(Cl)cc2)c1Cl [Compound 80]
Plant response rating, Foxtail, Giant [1, 21]: 70
Plant response rating, Foxtail, Giant [1, 22]: 90
Plant response rating, Foxtail, Giant [1, 23]: 15
Plant response rating, Foxtail, Giant [1, 24]: 70
Plant response rating, Crabgrass [2, 21]: 30
Plant response rating, Crabgrass [2, 22]: 70
Plant response rating, Crabgrass [2, 23]: 45
Plant response rating, Crabgrass [2, 24]: 85
Plant response rating, Morningglory [3, 21]: 90
Plant response rating, Morningglory [3, 22]: 95
Plant response rating, Morningglory [3, 23]: 90
Plant response rating, Morningglory [3, 24]: 100
Plant response rating, Barnyardgrass [4, 21]: 55
Plant response rating, Barnyardgrass [4, 22]: 90
Plant response rating, Barnyardgrass [4, 23]: 10
Plant response rating, Barnyardgrass [4, 24]: 80
Plant response rating, Pigweed [5, 21]: 65
Plant response rating, Pigweed [5, 22]: 95
Plant response rating, Pigweed [5, 23]: 80
Plant response rating, Pigweed [5, 24]: 90
Plant response rating, Velvetleaf [6, 21]: 65
Plant response rating, Velvetleaf [6, 22]: 90
Plant response rating, Velvetleaf [6, 23]: 75
Plant response rating, Velvetleaf [6, 24]: 90
Plant response rating, Barnyardgrass ([7]; 125 g ai/ha): 0
Plant response rating, Barnyardgrass ([7]; 500 g ai/ha): 50
Plant response rating, Ducksalad ([8]; 125 g ai/ha): 50
Plant response rating, Ducksalad ([8]; 500 g ai/ha): 70
Plant response rating, Sedge, Umbrella ([9]; 125 g ai/ha): 20
Plant response rating, Sedge, Umbrella ([9]; 500 g ai/ha): 70
Plant response rating, Rice (rice (Oryza sativa); 125 g ai/ha): 0
Plant response rating, Rice (rice (Oryza sativa); 500 g ai/ha): 50

CNc1nc(-c2ccc(Cl)cc2)nc(C(=O)OC)c1Cl [Compound 111]
Plant response rating, Foxtail, Giant [1, 21]: 0
Plant response rating, Foxtail, Giant [1, 22]: 0
Plant response rating, Foxtail, Giant [1, 23]: 0
Plant response rating, Foxtail, Giant [1, 24]: 0
Plant response rating, Crabgrass [2, 21]: 5
Plant response rating, Crabgrass [2, 22]: 30
Plant response rating, Crabgrass [2, 23]: 0
Plant response rating, Crabgrass [2, 24]: 0
Plant response rating, Morningglory [3, 21]: 20
Plant response rating, Morningglory [3, 22]: 50
Plant response rating, Morningglory [3, 23]: 0
Plant response rating, Morningglory [3, 24]: 0
Plant response rating, Barnyardgrass [4, 21]: 0
Plant response rating, Barnyardgrass [4, 22]: 10
Plant response rating, Barnyardgrass [4, 23]: 0
Plant response rating, Barnyardgrass [4, 24]: 0
Plant response rating, Pigweed [5, 21]: 55
Plant response rating, Pigweed [5, 22]: 85
Plant response rating, Pigweed [5, 23]: 0
Plant response rating, Pigweed [5, 24]: 0
Plant response rating, Velvetleaf [6, 21]: 75
Plant response rating, Velvetleaf [6, 22]: 85
Plant response rating, Velvetleaf [6, 23]: 0
Plant response rating, Velvetleaf [6, 24]: 0
Ducksalad plant response rating ([10]; 32 g ai/ha): 0
Ducksalad plant response rating ([10]; 64 g ai/ha): 85
Ducksalad plant response rating ([10]; 125 g ai/ha): 100
Ducksalad plant response rating ([10]; 250 g ai/ha): 100
Plant response rating, Ducksalad ([10]; 16 g ai/ha): 0
Watergrass, Late plant response rating ([11]; 32 g ai/ha): 0
Watergrass, Late plant response rating ([11]; 64 g ai/ha): 0
Watergrass, Late plant response rating ([11]; 125 g ai/ha): 0
Watergrass, Late plant response rating ([11]; 250 g ai/ha): 0
Plant response rating, Watergrass, Late ([11]; 16 g ai/ha): 0
Watergrass, Early plant response rating ([12]; 32 g ai/ha): 0
Watergrass, Early plant response rating ([12]; 64 g ai/ha): 0
Watergrass, Early plant response rating ([12]; 125 g ai/ha): 0
Watergrass, Early plant response rating ([12]; 250 g ai/ha): 0
Plant response rating, Watergrass, Early ([12]; 16 g ai/ha): 0
Redstem plant response rating ([13]; 32 g ai/ha): 20
Redstem plant response rating ([13]; 64 g ai/ha): 30
Redstem plant response rating ([13]; 125 g ai/ha): 30
Redstem plant response rating ([13]; 250 g ai/ha): 75
Plant response rating, Redstem ([13]; 16 g ai/ha): 0
Barnyardgrass plant response rating ([14]; 32 g ai/ha): 0
Barnyardgrass plant response rating ([14]; 64 g ai/ha): 0
Barnyardgrass plant response rating ([14]; 125 g ai/ha): 0
Barnyardgrass plant response rating ([14]; 250 g ai/ha): 0
Plant response rating, Barnyardgrass ([14]; 16 g ai/ha): 0
Flatsedge, Rice plant response rating ([15]; 32 g ai/ha): 0
Flatsedge, Rice plant response rating ([15]; 64 g ai/ha): 0
Flatsedge, Rice plant response rating ([15]; 125 g ai/ha): 0
Flatsedge, Rice plant response rating ([15]; 250 g ai/ha): 0
Plant response rating, Flatsedge, Rice ([15]; 16 g ai/ha): 0
Junglerice plant response rating ([16]; 32 g ai/ha): 0
Junglerice plant response rating ([16]; 64 g ai/ha): 0
Junglerice plant response rating ([16]; 125 g ai/ha): 0
Junglerice plant response rating ([16]; 250 g ai/ha): 0
Plant response rating, Junglerice ([16]; 16 g ai/ha): 0
Sprangletop, Brdd. plant response rating ([17]; 32 g ai/ha): 0
Sprangletop, Brdd. plant response rating ([17]; 64 g ai/ha): 0
Sprangletop, Brdd. plant response rating ([17]; 125 g ai/ha): 0
Sprangletop, Brdd. plant response rating ([17]; 250 g ai/ha): 0
Plant response rating, Sprangletop, Brdd. ([17]; 16 g ai/ha): 0
Sedge, Umbrella plant response rating ([18]; 32 g ai/ha): 0
Sedge, Umbrella plant response rating ([18]; 64 g ai/ha): 0
Sedge, Umbrella plant response rating ([18]; 125 g ai/ha): 0
Sedge, Umbrella plant response rating ([18]; 250 g ai/ha): 75
Plant response rating, Sedge, Umbrella ([18]; 16 g ai/ha): 0
Rice, Transplanted plant response rating ([19]; 32 g ai/ha): 0
Rice, Transplanted plant response rating ([19]; 64 g ai/ha): 0
Rice, Transplanted plant response rating ([19]; 125 g ai/ha): 0
Rice, Transplanted plant response rating ([19]; 250 g ai/ha): 0
Plant response rating, Rice, Transplanted ([19]; 16 g ai/ha): 0
Rice, Water Seeded plant response rating ([20]; 32 g ai/ha): 0
Rice, Water Seeded plant response rating ([20]; 64 g ai/ha): 0
Rice, Water Seeded plant response rating ([20]; 125 g ai/ha): 0
Rice, Water Seeded plant response rating ([20]; 250 g ai/ha): 0
Plant response rating, Rice, Water Seeded ([20]; 16 g ai/ha): 0
